Where two headings read alike, the source gives them in different places.
Legend:
α1A-adrenergic receptor [1] = biological target: T1, α1A-adrenergic receptor (Homo sapiens, UniProt P35348); assay: Primary radioligand binding screen; settings: 10 µM, n = 4
T1 sequence (P35348 1-466): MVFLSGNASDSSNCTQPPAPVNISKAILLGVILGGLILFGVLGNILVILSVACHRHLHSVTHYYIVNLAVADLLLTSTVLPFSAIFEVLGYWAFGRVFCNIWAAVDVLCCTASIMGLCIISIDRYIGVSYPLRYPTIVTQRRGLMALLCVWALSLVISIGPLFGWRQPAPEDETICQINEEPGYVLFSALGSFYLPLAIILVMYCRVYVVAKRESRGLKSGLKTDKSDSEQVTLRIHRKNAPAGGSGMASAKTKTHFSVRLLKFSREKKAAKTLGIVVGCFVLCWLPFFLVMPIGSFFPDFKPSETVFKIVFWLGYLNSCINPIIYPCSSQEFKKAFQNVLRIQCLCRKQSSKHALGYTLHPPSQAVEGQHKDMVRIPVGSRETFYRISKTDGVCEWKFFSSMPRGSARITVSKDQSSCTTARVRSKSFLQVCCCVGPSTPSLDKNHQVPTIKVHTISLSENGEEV

serotonin transporter [2] = biological target: T2, serotonin transporter (Homo sapiens, UniProt P31645); assay: Secondary radioligand binding assay; settings: low-affinity binding
T2 sequence (P31645 whole entry): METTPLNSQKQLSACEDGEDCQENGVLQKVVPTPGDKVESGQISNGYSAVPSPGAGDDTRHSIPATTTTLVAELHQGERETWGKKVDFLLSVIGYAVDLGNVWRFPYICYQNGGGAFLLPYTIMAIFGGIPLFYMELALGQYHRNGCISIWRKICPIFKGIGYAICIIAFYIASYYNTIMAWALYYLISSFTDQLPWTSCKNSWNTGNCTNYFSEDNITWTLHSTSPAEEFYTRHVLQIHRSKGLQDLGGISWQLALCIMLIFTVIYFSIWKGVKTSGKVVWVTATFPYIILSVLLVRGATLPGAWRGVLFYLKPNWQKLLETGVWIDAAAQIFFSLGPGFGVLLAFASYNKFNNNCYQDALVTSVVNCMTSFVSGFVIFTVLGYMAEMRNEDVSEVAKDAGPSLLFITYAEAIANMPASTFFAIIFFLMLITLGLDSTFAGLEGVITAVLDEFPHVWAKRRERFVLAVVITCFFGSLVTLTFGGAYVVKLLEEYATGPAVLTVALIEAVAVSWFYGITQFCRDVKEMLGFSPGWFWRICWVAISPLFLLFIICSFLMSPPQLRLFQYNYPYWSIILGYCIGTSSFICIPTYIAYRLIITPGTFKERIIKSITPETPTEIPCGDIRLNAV

serotonin transporter [3] = biological target: T2, serotonin transporter; assay: Primary radioligand binding screen; settings: 10 µM, n = 4
α1A-adrenergic receptor [4] = biological target: T1, α1A-adrenergic receptor; assay: Secondary radioligand binding assay
rat colon = assay: Ex vivo rat colon force contraction experiment; settings: for contractile response in the colon: colon pre-treated with β3 receptor selective antagonist SR59230A; for effects on colonic contractions: ex vivo rat colon preparation
α1B-adrenergic receptor = biological target: T3, α1B-adrenergic receptor (Homo sapiens, UniProt P35368); assay: Secondary radioligand binding assay
T3 sequence (P35368 1-520): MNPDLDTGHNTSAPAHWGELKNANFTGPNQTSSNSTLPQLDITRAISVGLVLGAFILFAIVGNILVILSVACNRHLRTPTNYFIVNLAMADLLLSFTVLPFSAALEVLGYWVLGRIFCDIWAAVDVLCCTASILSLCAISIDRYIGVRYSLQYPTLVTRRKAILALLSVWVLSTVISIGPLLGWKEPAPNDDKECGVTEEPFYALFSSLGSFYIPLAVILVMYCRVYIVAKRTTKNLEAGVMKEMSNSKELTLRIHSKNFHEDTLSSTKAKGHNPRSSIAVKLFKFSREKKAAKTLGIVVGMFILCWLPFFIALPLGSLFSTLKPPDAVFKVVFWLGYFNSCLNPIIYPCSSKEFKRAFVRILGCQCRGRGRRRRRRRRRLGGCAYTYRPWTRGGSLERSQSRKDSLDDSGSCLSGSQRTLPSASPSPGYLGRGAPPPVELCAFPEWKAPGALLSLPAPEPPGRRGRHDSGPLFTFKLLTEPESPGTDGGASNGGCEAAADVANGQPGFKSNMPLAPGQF

histamine H1 receptor = histamine H1 receptor (Homo sapiens, UniProt P35367); assay: Primary radioligand binding screen; settings: 10 µM, n = 4
Sequence of histamine H1 receptor (P35367 whole entry, species assumed): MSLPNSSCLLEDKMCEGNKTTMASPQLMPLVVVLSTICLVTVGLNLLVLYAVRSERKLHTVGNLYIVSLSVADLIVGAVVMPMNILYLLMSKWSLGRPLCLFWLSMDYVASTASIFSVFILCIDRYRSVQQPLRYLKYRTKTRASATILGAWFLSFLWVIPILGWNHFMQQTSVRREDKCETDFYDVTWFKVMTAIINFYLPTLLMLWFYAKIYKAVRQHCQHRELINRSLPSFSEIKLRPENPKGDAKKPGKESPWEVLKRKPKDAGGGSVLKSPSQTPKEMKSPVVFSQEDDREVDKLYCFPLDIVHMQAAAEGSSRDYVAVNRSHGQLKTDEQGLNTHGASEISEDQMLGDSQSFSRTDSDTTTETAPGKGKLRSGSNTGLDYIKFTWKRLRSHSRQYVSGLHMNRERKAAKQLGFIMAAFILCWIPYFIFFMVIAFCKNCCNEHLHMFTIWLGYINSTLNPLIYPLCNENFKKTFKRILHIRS

α1D-adrenergic receptor = biological target: T4, α1D-adrenergic receptor (Homo sapiens, UniProt P25100); assay: Secondary radioligand binding assay
T4 sequence (P25100 1-572): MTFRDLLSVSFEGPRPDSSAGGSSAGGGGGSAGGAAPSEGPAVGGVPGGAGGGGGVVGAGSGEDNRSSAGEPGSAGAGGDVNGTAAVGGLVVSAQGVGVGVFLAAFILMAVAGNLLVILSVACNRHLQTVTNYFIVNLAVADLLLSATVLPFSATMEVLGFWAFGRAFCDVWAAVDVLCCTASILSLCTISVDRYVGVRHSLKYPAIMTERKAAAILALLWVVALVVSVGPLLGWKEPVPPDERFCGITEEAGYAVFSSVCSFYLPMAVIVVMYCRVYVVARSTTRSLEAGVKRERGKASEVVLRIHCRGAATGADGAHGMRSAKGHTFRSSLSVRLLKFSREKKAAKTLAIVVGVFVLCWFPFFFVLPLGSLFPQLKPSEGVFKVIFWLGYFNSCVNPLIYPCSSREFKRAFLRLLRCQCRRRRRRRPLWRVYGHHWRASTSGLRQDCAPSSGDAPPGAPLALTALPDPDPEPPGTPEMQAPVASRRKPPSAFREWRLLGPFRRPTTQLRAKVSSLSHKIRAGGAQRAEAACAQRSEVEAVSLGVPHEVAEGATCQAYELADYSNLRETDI

β3-adrenergic receptor [5] = biological target: T5, β3-adrenergic receptor (Homo sapiens, UniProt P13945); assay: Primary radioligand binding screen; settings: 10 µM, n = 4
T5 sequence (P13945 whole entry, species assumed): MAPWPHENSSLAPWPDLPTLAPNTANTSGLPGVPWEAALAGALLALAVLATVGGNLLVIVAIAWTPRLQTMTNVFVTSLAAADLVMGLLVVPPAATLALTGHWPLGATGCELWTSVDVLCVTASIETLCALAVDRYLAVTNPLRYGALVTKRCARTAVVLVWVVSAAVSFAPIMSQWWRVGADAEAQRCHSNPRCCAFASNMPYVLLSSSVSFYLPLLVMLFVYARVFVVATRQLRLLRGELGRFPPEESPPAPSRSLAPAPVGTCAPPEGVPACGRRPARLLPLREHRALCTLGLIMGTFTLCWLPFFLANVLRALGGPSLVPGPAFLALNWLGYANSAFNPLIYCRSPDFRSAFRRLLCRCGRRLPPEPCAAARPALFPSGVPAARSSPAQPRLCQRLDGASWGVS

5-HT2C receptor [6] = biological target: T6, 5-HT2C receptor (Homo sapiens, UniProt P28335); assay: Secondary radioligand binding assay
T6 sequence (P28335 33-458): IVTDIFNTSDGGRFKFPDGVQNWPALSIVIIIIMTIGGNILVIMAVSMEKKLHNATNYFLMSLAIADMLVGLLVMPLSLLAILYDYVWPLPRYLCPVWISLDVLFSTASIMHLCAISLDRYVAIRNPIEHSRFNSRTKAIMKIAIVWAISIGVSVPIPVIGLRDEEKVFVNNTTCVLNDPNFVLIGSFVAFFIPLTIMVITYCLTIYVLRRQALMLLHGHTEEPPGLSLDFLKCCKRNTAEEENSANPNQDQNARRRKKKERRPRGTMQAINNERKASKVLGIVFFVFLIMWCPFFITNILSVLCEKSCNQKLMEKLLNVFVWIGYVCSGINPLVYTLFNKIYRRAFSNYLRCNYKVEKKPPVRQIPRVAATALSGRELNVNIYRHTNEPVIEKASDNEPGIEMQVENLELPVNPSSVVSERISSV

δ-opioid receptor [7] = biological target: T7, δ-opioid receptor (Homo sapiens, UniProt P41143); assay: Secondary radioligand binding assay
T7 sequence (P41143 whole entry): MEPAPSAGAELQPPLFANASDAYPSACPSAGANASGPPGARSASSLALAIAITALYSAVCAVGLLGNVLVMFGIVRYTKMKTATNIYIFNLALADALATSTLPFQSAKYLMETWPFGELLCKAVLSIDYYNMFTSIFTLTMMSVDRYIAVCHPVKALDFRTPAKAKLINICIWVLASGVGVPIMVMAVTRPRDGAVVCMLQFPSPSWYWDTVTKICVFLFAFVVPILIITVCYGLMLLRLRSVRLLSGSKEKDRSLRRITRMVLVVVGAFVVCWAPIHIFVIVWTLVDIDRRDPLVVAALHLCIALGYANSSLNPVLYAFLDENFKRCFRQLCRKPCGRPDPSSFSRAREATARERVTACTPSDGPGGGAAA

5-HT2C receptor [8] = biological target: T6, 5-HT2C receptor; assay: Primary radioligand binding screen; settings: 10 µM, n = 4
δ-opioid receptor [9] = biological target: T7, δ-opioid receptor; assay: Primary radioligand binding screen; settings: 10 µM, n = 4
β3-adrenergic receptor [10] = biological target: T5, β3-adrenergic receptor; assay: Secondary radioligand binding assay
dopamine transporter = dopamine transporter (Homo sapiens, UniProt Q01959); assay: Primary radioligand binding screen; settings: 10 µM, n = 4
Sequence of dopamine transporter (Q01959 whole entry): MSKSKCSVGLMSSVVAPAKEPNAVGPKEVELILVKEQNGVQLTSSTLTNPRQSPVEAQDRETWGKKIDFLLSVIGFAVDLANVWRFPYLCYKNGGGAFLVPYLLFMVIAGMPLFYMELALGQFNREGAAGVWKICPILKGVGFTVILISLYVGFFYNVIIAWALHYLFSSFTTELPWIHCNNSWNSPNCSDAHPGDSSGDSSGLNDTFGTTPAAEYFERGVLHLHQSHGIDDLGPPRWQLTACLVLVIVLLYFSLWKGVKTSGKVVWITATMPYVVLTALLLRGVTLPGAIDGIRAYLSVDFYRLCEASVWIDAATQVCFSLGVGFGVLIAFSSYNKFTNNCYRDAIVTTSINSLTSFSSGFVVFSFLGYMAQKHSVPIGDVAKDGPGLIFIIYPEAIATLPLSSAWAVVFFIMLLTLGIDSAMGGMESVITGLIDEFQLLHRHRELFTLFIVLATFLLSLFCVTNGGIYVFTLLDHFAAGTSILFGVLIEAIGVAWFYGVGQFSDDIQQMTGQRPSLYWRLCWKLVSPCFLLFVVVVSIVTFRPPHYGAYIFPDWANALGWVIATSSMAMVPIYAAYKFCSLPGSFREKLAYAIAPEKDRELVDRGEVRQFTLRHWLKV

muscarinic M3 receptor = muscarinic M3 receptor (Homo sapiens, UniProt P20309); type: binding
Sequence of muscarinic M3 receptor (P20309 whole entry): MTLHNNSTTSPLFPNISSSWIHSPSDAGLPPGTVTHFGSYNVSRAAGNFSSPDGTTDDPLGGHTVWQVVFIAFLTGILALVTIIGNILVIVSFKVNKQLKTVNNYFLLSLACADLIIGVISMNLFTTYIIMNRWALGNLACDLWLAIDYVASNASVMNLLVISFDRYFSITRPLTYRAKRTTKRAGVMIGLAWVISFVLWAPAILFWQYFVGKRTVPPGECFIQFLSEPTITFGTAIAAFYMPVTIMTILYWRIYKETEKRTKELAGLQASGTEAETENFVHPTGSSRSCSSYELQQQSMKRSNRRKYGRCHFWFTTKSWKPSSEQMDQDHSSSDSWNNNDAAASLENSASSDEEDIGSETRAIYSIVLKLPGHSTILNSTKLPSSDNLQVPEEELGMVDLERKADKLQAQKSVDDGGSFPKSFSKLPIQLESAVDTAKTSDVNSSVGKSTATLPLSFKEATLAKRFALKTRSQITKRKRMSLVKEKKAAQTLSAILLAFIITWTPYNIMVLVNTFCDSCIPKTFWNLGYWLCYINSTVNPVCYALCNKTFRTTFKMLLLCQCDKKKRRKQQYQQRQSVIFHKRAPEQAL

Row | SMILES | % displacement (α1A-adrenergic receptor [1]) | Ki (serotonin transporter [2]) | % displacement (serotonin transporter [3]) | Ki (α1A-adrenergic receptor [4]; low-affinity binding) | contractile response in the colon (rat colon) | effects on colonic contractions (rat colon) | % displacement (histamine H1 receptor) | Ki (α1D-adrenergic receptor) | % displacement (5-HT2C receptor [8]) | further results
1 | CC(C)(C)c1cc(C(C)(C)C(=O)O)c(O)cc1NC(=O)c1c[nH]c2ccccc2c1=O [iva-M6, ivacaftorcarboxylate] | 92.3% | > 10 µM | 50.9% | > 10 µM | significant contractile response | no significant effects |  |  |  | 
2 | Cc1ccc(NC(=O)C2(c3ccc4c(c3)OC(F)(F)O4)CC2)nc1-c1cccc(C(=O)O)c1 [lumacaftor] |  |  |  |  |  |  | 71.2% | 4.84 µM |  | Ki (α1B-adrenergic receptor): > 10 µM
3 | CC(C)(C)c1cc(C(C)(C)C)c(NC(=O)c2c[nH]c3ccccc3c2=O)cc1O [ivacaftor] | 58.3% |  | 61.1% |  | significant contractile response | no significant effects |  |  | 84.8% | Ki (serotonin transporter [2]; Ki): > 10 µM; % displacement (β3-adrenergic receptor [5]): 75.9%; Ki (5-HT2C receptor [6]): 0.866 µM; Ki (δ-opioid receptor [7]): 2.59 µM; Ki (α1A-adrenergic receptor [4]): > 10 µM; % displacement (δ-opioid receptor [9]): 50.8%; Ki (β3-adrenergic receptor [10]): 1.93 µM; % displacement (dopamine transporter): 55.2%
4 | CC(C)(C)c1cc(C(C)(C)CO)c(O)cc1NC(=O)c1c[nH]c2ccccc2c1=O [iva-M1, hydroxymethylivacaftor] | 79.9% | > 10 µM | 56.7% | > 10 µM |  |  |  |  | 78.2% | Ki (muscarinic M3 receptor): 1.83 µM; pKi (muscarinic M3 receptor): 5.70±0.10
5 | CC(C)(CO)c1cc2cc(NC(=O)C3(c4ccc5c(c4)OC(F)(F)O5)CC3)c(F)cc2n1C[C@@H](O)CO [tezacaftor] |  |  |  |  |  |  | 53.3% | 5.45 µM |  | 

Reference: PMC5850045 (ERJ Open Research, 2018)
